Square brackets hold non-standard residues; d marks the D form. Ends that are not written are not given here. Peptide text beside a SMILES is read from it. pT = C[C@@H](OP(=O)(O)O)[C@H](N)C(=O)O; pS = N[C@@H](COP(=O)(O)O)C(=O)O
Key:
[1] = molecular target: T1, C-terminal domain (CTD) of scMad1 (Saccharomyces cerevisiae, UniProt P40957); experiment: ITC, scBub1 fragment or phospho-peptides with scMad1 CTD; format: binding; details: 20°C, 25 mM HEPES pH 7.5, 150 mM NaCl, scMad1 20 µM in cell, scBub1 phospho-peptide or fragment 300 µM injected, read-out: Kd, dissociation constant
T1 sequence (P40957 633-749 limits assumed): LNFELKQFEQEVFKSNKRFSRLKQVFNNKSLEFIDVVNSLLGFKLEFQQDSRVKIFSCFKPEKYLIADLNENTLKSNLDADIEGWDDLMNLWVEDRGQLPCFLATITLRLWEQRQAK
Protocol: All isothermal titration calorimetry (ITC) assays were performed with a MicroCal Omega ITC200 titration calorimeter (GE Life Sciences) at 20°C. Recombinant scMad1^CTD protein or scMad1–scMad2 complexes were dialyzed into the HEPES Buffer I (25 mM HEPES, pH 7.5, 150 mM NaCl). Recombinant human Mad1^CTD protein was dialyzed into the HEPES Buffer II (25 mM HEPES, pH 7.5, 50 mM NaCl). For each titration, 300 μl of scMad1 proteins (20 µM) or human Mad1 (50 µM) were added to the calorimeter cell. The scBub1 phospho-peptides or purified scMps1-phosphorylated scBub1_449–530 fragment (300 µM) in the HEPES Buffer I or the human Bub1 phospho-peptides (500 µM) in the HEPES Buffer II were injected with an injection syringe in 19 2-μl portions. The raw data were processed and fitted with the NITPIC software package ([Keller et al., 2012]).

Bub1^ΔK–Bub3 = experiment: in vitro kinase assay on recombinant Bub1^ΔK–Bub3; format: biochemical, human; details: 400 nM Bub1^ΔK–Bub3, 50 nM Cdk1–Cyclin B1 or 500 nM Mps1, 1 mM ATP, room temperature, 30 min; blot
Protocol: For kinase assays, 1 μM Cdc20^ΔN60, 40 μM Mad1^E–Mad2, or 400 nM Bub1^ΔK–Bub3 was incubated with 40 nM Bub1, 500 nM Mps1, and/or 50 nM Cdk1–Cyclin B1 at room temperature for 30 min in the kinase buffer (25 mM Tris-HCl, pH 7.7, 100 mM NaCl, 10 mM MgCl2, 5 mM NaF, 20 mM β-glycerophosphate, 0.1 mM Na3VO4 and 1 mM DTT) supplemented with 1 mM ATP. The reaction mixtures were stopped with the appropriate kinase inhibitors for further protein-binding assays, or quenched with the SDS loading buffer and analyzed by Coomassie blue staining or Western blotting.

APC/C^Cdc20 = APC/C^Cdc20 inhibition by MCC components (securin ubiquitination assay); format: biochemical, Xenopus APC/C, human Cdc20; details: BubR1^N and Cdc20^ΔN60, no Bub1^ΔK–Bub3, Mad1^E–Mad2, Cdk1 or Mps1
human Mad1 CTD = experiment: in vitro pull-down of human Mad1^CTD by Bub1 peptide beads; format: binding; details: peptides immobilized on SulfoLink resin, Coomassie
Protocol: Recombinant bait proteins or bacteria lysates containing bait proteins were incubated with the appropriate affinity beads. Bait-bound beads were then blocked with 2% fat-free milk when necessary before being mixed with 100 µl diluted prey proteins. After incubation, beads were washed and eluted with the SDS loading buffer. The bead-bound proteins were analyzed by Coomassie blue staining or Western blotting. […] In cases that synthesized peptides were used as bait, peptides were immobilized on SulfoLink resin (Thermo Scientific, Waltham, MA) according to the manufacturer’s instructions. The synthetic scBub1 peptides contained residues 449–473 of scBub1, various phospho-residues, and a cysteine at the N-terminus. All synthetic human Bub1 peptides, except the pS459 peptide, contained residue 455–477 of human Bub1, the appropriate phospho-residues, and a cysteine at the N-terminus. The Bub1 pS459 peptide contained residues 439–480, pT452/pS459, and a cysteine at the C-terminus.

## CC[C@H](C)[C@H](NC(=O)[C@H](C)NC(=O)[C@H](CC(=O)O)NC(=O)[C@H](CCCCN)NC(=O)[C@H](CO)NC(=O)[C@H](Cc1ccccc1)NC(=O)[C@H](C)NC(=O)[C@@H](NC(=O)[C@@H](NC(=O)[C@@H](NC(=O)[C@@H]1CCCN1C(=O)[C@H](CO)NC(=O)[C@H](CCCNC(=N)N)NC(=O)[C@H](CO)NC(=O)[C@@H](N)CS)[C@@H](C)OP(=O)(O)O)C(C)C)[C@@H](C)OP(=O)(O)O)C(=O)N[C@@H](CC(N)=O)C(=O)N[C@@H](CCC(=O)O)C(=O)N[C@H](C(=O)N[C@@H](Cc1ccccc1)C(=O)N[C@@H](CO)C(=O)N[C@@H](CCSC)C(=O)N[C@@H](Cc1ccccc1)C(=O)N[C@@H](CC(N)=O)C(=O)N[C@@H](CCC(N)=O)C(=O)N[C@@H](Cc1c[nH]cn1)C(=O)N[C@@H](Cc1ccc(O)cc1)C(=O)O)C(C)C [scBub1 pT453-pT455 peptide] (H-CSRSP[pT]V[pT]AFSKDAINEVFSMFNQHY-OH)
[1]
  Kd: 1600 nM

## CC[C@H](C)[C@H](NC(=O)[C@H](C)NC(=O)[C@H](CC(=O)O)NC(=O)[C@H](CCCCN)NC(=O)[C@H](CO)NC(=O)[C@H](Cc1ccccc1)NC(=O)[C@H](C)NC(=O)[C@@H](NC(=O)[C@@H](NC(=O)[C@@H](NC(=O)[C@@H]1CCCN1C(=O)[C@H](CO)NC(=O)[C@H](CCCNC(=N)N)NC(=O)[C@H](CO)NC(=O)[C@@H](N)CS)[C@@H](C)O)C(C)C)[C@@H](C)OP(=O)(O)O)C(=O)N[C@@H](CC(N)=O)C(=O)N[C@@H](CCC(=O)O)C(=O)N[C@H](C(=O)N[C@@H](Cc1ccccc1)C(=O)N[C@@H](CO)C(=O)N[C@@H](CCSC)C(=O)N[C@@H](Cc1ccccc1)C(=O)N[C@@H](CC(N)=O)C(=O)N[C@@H](CCC(N)=O)C(=O)N[C@@H](Cc1c[nH]cn1)C(=O)N[C@@H](Cc1ccc(O)cc1)C(=O)O)C(C)C [scBub1 pT455 peptide] (H-CSRSPTV[pT]AFSKDAINEVFSMFNQHY-OH)
[1]
  Kd: 1600 nM

## Cdk1: recombinant GST-Cdk1 (T14A/Y15F) co-expressed with His6-Cyclin B1 [reference compound]
Bub1^ΔK–Bub3
  phosphorylation of Bub1^ΔK–Bub3 at S459 (in words): strongly phosphorylated at S459

## Mad2^Di: dimeric Mad2 separated by ion exchange chromatography
APC/C^Cdc20
  spontaneous functional MCC formation and APC/C^Cdc20 inhibition (in words): allowed the spontaneous formation of functional MCC that inhibited securin ubiquitination by APC/C^Cdc20

## Mad2^Mono: monomeric Mad2, mostly the inactive O-Mad2
APC/C^Cdc20
  spontaneous functional MCC formation and APC/C^Cdc20 inhibition (in words): only showed weak APC/C^Cdc20 inhibition at very high doses

## pS459-pT461-pT464 peptide: triply phosphorylated synthetic human Bub1 peptide, residues 455–477, N-terminal cysteine (CKVQP[pS]P[pT]VH[pT]KEALGFIMNMFQA; UniProt O43683 455-477, looked up, fragment)
Human Mad1 CTD
  binding to human Mad1 CTD (in words): bound more weakly to Mad1 than the pS459-pT461 peptide

— PMC5268738, “A sequential multi-target Mps1 phosphorylation cascade promotes spindle checkpoint signaling” (eLife, 2017)
